In PubChem BioAssay (NCI):
“And” between values parts separate entries of the source, which are not always exact repeats. Equal values may be shown once.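 Values below derive from 48-hour exposures of cells grown in 96-well plates, with endpoints linearly interpolated between the two concentrations bracketing the appropriate inhibition level. Here, GI50 denotes the concentration required for 50% inhibition of growth. TGI marks complete inhibition of growth.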

Assays:
Experiment in all cases: NCI-60 cell line screen, 48 h
HT29 colon = test system: HT29 colon
NCI-H226 lung = test system: NCI-H226 lung
NCI-H522 lung = test system: NCI-H522 lung
SF-295 CNS = test system: SF-295 CNS
SK-MEL-5 melanoma = test system: SK-MEL-5 melanoma
SK-OV-3 ovarian = test system: SK-OV-3 ovarian
SR leukemia = test system: SR leukemia
SW-620 colon = test system: SW-620 colon
HCT-15 colon = test system: HCT-15 colon
MALME-3M melanoma = test system: MALME-3M melanoma

SMILES	GI50 (HT29 colon) [µM]	TGI (HT29 colon)	GI50 (NCI-H226 lung) [µM]	TGI (NCI-H226 lung) [µM]	GI50 (NCI-H522 lung) [µM]	TGI (NCI-H522 lung) [µM]	GI50 (SF-295 CNS) [µM]	TGI (SF-295 CNS) [µM]	GI50 (SK-MEL-5 melanoma) [µM]	TGI (SK-MEL-5 melanoma)	GI50 (SK-OV-3 ovarian) [µM]	TGI (SK-OV-3 ovarian)	GI50 (SR leukemia) [µM]	TGI (SR leukemia) [µM]	GI50 (SW-620 colon) [µM]	TGI (SW-620 colon)	TGI (HCT-15 colon)	GI50 (HCT-15 colon) [µM]	GI50 (MALME-3M melanoma) [µM]	TGI (MALME-3M melanoma)
Oc1ccccc1-c1nn(CNc2cccc(Cl)c2)c(=S)o1	18.5	> 100 µM	54.2	> 100	> 100	> 100	> 100	> 100	89.2	> 100 µM	> 100	> 100 µM	15.1	49.4	27.2	> 100 µM	–	–	–	–
C/C(=C\C(C)COCc1ccccc1)[C@H](COCc1ccccc1)OCc1ccccc1 (stereo not given in full)	–	> 100 µM	–	> 100	–	> 100	–	> 100	–	> 100 µM	–	> 100 µM	–	–	–	> 100 µM	> 100 µM	–	–	–
O=c1c2cccc(Cl)c2sc2c(NCCCNCCO)nc3ccccc3c12	1.68	3.37 µM	6.24	23.9	1.99	4.42	6.29	20.2	6.5	21 µM	–	–	1.6	5.97	1.41	2.95 µM	3.33 µM	1.54	1.61	3.15 µM
O=c1/c(=C/c2cccc([N+](=O)[O-])c2)sc2nc3ccccc3n12	–	> 100 µM	–	> 100	–	–	–	–	–	–	–	> 100 µM	–	–	–	> 100 µM	> 100 µM	–	–	> 100 µM
CCOC(C)C(/C=N/NC(N)=S)=NNC(N)=S (stereo not given)	–	–	–	–	–	> 100	–	> 100	–	> 100 µM	–	> 100 µM	–	> 100	–	> 100 µM	> 100 µM	–	–	> 100 µM
COc1cc(/C=C2/C(=O)N(C(=O)OC(C)C)C(Cc3cc(OC)c(OC)c(C)c3OC)C(=O)N2Cc2ccccc2)c(OC)c(C)c1OC (stereo not given)	–	> 100 µM	–	30	–	32	–	> 100	–	> 100 µM	–	> 100 µM	–	51.1	–	> 100 µM	–	–	–	> 100 µM
Cn1ccnc1C(=O)/C=C/c1ccc(C(=O)Nc2ccc(Cl)cc2)cc1	0.946	> 33.3 µM	3.11	18	1.81	14	1.46	6.11	2.35	7.04 µM	1.87	> 33.3 µM	0.255	1.56	–	–	3.12 µM	0.676	2.23	12.2 µM
O=S1c2ccccc2N=C(c2ccc3ccccc3c2)CC1C1=CC=CCC1 (stereo not given)	–	31.4 µM	–	43.9	–	33.2	–	39.6	–	30.4 µM	–	50.4 µM	–	–	–	36.7 µM	35.7 µM	–	–	62.3 µM
CC1=C(C(=O)Nc2ccc(F)c(Cl)c2)C(c2ccccc2Cl)NC(=S)N1 (stereo not given)	–	–	–	–	35.7	> 50	39.8	> 50	12.4	> 50 µM	> 50	> 50 µM	23.1	> 50	> 50	> 50 µM	> 50 µM	16.2	–	–
COc1ccccc1OCC(=O)Nc1sc2c(c1C(N)=O)CCC2	> 100	> 100 µM	44.3	> 100	> 100	> 100	–	–	70.6	> 100 µM	> 100	> 100 µM	> 100	> 100	> 100	> 100 µM	> 100 µM	33.4	> 100	> 100 µM
COc1ccc(C(=O)OCC2OC(n3cnc4c(=S)nc[nH]c43)C(OC(=O)c3ccc(OC)cc3)C2OC(=O)c2ccc(OC)cc2)cc1 (stereo not given)	–	> 100 µM	–	> 100	–	54.5	–	> 100	–	> 100 µM	–	–	–	> 100	–	> 100 µM	> 100 µM	–	–	> 100 µM
COc1cc(C(=O)c2ccc3c(c2)OCO3)cc(OC)c1OC	0.502	15.5 µM	8.76	> 100	1.4	8.84	1.55	–	1.88	> 21.5 µM	2.84	33.1 µM	0.348	> 87.7	0.621	> 100 µM	> 100 µM	0.928	–	–
CCCCCCCCCCCCCC(=O)O[C@H]1CC[C@H](NC(=O)[C@H](OC)[C@H](O)[C@@H](O)[C@H](O)/C=C/C(C)C)C(=O)NC1	–	7.29 µM and 12.7 µM	0.00206	4.29	–	–	–	–	–	1.37 µM and 0.25 µM	–	51.2 µM and > 100 µM	< 0.001	9.3	–	11.2 µM and 12.8 µM	21.1 µM and 90.7 µM	–	–	7.97 µM and 38.7 µM
CC[C@H](C)[C@H]1NC(=O)[C@@H](N[C@](C)(O)[C@@H](N)CC(C)C)[C@@H](C)OC(=O)[C@H](Cc2ccc(OC)cc2)N(C)C(=O)[C@@H]2CCCN2C(=O)[C@H](CC(C)C)NC(=O)[C@@H](C)C(=O)[C@H](C(C)C)OC(=O)C[C@@H]1O	0.00695	0.702 µM	0.0175	0.501	0.0114	0.143	–	–	0.018	0.665 µM	0.0191	1.19 µM	0.00603	0.0422	0.0167	6.06 µM	22.9 µM	0.217	0.0117	0.133 µM
COC(=O)C1=C2CCC(=O)[C@@]2(C)C(OC(C)=O)C=CC1 (stereo not given in full)	–	> 100 µM	–	> 100	–	–	–	> 100	–	> 100 µM	–	> 100 µM	–	–	–	> 100 µM	87.3 µM	–	–	> 100 µM
CC(=O)[CH-]C(=O)c1ccccc1.CC(=O)[CH-]C(=O)c1ccccc1.CC[O-].CC[O-].[Zr+4]	> 100	> 100 µM	> 100	> 100	> 100	> 100	> 100	> 100	> 100	> 100 µM	> 100	> 100 µM	–	–	> 100	> 100 µM	> 100 µM	> 100	> 100	> 100 µM
O=S(=O)(/C=C/c1ccc(Cl)cc1Cl)Cc1ccccc1CS(=O)(=O)/C=C/c1ccc(Cl)cc1Cl	–	> 100 µM	–	> 100	–	> 100	–	> 100	–	–	–	> 100 µM	–	> 100	–	> 100 µM	> 100 µM	–	–	–
CC1CC2(C)ON=C(c3ccccc3)N2c2ccccc2S1 (stereo not given)	27.9	80 µM	–	–	27.5	65.5	28.9	79.1	16.9	32.1 µM	9.55	91.9 µM	34.6	–	39.3	–	–	44.6	–	–
